Here are results for eleven compounds from BindingDB's records for doi:10.1016/j.bmcl.2011.12.068 (Janssen Pharmaceutica, 2012).

Structures are written as SMILES. A value given as a limit tells only on which side of the number the result lay.

Assay [1] has as its target Transient receptor potential cation channel subfamily A member 1 (Rattus norvegicus, UniProt Q6RI86). The assay can be described thus: Antagonist activity at rat TRPA1 expressed in HEK293 cells assessed as inhibition of BITC-induced increase in intracellular calcium concentration by Fluo4-AM based fluorometric assay. (In general: A change in cytosolic calcium serves as a functional read-out for many receptors and channels.)

Assay [2] addresses Transient receptor potential cation channel subfamily A member 1 (Homo sapiens, UniProt O75762). The assay can be described thus: Antagonist activity at human TRPA1 expressed in HEK293 cells assessed as inhibition of 5H-dibenzo[b,e]azepine-10-carboxylic acid methyl ester-induced increase in intracellular calcium by Fluo4-AM based fluorometric assay.

Chain of Transient receptor potential cation channel subfamily A member 1 (Rattus norvegicus, UniProt Q6RI86) (Q6RI86 whole entry E27K): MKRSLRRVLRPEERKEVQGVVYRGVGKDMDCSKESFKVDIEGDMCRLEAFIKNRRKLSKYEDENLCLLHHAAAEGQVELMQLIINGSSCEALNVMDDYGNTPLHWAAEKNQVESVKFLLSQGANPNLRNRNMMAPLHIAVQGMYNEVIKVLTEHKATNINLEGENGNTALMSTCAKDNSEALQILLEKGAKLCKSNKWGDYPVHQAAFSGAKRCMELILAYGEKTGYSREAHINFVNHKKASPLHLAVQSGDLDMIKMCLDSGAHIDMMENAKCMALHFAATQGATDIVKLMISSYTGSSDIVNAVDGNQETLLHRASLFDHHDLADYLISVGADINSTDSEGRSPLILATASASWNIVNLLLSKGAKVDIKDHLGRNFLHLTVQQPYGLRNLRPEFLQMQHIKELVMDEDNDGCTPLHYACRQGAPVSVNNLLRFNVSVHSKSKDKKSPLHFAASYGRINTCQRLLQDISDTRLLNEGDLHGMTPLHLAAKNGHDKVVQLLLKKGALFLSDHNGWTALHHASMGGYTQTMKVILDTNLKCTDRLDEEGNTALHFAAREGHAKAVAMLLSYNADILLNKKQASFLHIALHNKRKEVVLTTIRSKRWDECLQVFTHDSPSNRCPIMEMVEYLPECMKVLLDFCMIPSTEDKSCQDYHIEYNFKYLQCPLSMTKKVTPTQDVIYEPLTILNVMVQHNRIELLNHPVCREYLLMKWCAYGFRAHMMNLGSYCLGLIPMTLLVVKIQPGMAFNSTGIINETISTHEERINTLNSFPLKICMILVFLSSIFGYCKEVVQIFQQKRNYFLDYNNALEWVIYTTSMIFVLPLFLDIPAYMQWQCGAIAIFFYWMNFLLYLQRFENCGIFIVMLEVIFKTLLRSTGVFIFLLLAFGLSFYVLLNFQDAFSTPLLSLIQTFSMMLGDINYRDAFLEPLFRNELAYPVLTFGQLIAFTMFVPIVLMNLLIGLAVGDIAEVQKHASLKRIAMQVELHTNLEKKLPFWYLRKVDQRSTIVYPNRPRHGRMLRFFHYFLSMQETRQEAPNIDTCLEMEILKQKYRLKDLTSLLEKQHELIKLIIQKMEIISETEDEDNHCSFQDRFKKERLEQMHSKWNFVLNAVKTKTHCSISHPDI
Chain of Transient receptor potential cation channel subfamily A member 1 (Homo sapiens, UniProt O75762) (O75762 whole entry): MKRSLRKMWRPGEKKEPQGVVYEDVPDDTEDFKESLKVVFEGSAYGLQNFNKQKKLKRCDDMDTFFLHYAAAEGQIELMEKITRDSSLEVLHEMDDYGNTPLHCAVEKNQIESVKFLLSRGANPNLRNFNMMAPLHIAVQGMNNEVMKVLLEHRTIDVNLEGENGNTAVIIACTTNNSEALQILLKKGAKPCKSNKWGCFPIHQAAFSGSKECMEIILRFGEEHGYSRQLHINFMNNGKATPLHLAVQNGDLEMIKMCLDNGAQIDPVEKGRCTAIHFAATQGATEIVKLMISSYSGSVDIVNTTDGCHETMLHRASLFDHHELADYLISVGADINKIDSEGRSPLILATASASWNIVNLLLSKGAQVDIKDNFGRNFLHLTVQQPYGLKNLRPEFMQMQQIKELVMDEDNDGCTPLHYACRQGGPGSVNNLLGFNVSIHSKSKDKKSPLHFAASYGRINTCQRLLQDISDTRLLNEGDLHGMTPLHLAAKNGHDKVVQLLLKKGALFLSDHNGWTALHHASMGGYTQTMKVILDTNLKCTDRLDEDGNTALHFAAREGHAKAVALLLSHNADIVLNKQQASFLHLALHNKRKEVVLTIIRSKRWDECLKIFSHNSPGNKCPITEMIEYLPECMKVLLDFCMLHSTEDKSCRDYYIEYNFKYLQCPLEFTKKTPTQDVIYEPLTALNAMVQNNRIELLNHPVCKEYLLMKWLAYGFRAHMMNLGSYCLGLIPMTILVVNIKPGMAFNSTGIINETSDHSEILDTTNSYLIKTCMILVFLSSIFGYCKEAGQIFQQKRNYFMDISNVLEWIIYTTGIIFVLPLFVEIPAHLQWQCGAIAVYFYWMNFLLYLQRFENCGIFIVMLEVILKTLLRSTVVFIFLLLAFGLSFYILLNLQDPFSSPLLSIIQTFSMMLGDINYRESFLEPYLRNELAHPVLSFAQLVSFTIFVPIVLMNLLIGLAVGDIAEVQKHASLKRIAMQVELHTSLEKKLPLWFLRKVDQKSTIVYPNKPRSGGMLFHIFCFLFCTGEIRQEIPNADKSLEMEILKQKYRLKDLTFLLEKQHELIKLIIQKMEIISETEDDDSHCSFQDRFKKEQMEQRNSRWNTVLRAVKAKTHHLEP

For the compound `COc1ccc(OC)c(C2NC(=S)N=C3c4ccccc4C(=O)C32)c1` (stereo not given), the 50% inhibitory concentration (IC50) in assay [1] and in assay [2] was greater than 10 µM in each case.
Turning to `S=C1N=C(c2ccccc2)CC(c2ccccc2)N1` (stereo not given), the IC50 in assay [2] was greater than 10 µM.
`O=C(O)c1cccc(C2NC(=S)N=C3c4ccccc4C(=O)C32)c1` (stereo not given): the IC50 in assay [1] and in assay [2] was greater than 10 µM in each case.
As to `S=C1N=C2CCCC2C(c2ccccc2)N1` (stereo not given), the half-maximal inhibitory concentration (IC50) in assay [2] is greater than 10 µM.
On the same count and under the same terms, in the case of `CC1=NC(=S)NC(c2ccccc2)C1C(=O)c1ccccc1` (stereo not given) it was greater than 10 µM; in that of `S=C1N=C2c3ccccc3CCC2C(c2ccccc2)N1` (stereo not given), greater than 10 µM.
On to `O=C1CCCC2=NC(=S)NC(c3ccccc3)C12` (stereo not given), for which the half-maximal inhibitory concentration (IC50) in assay [2] was greater than 10 µM.
Same read-out and setting: for `S=C1N=C2CCCCC2C(c2ccccc2)N1` (stereo not given) the value was greater than 10 µM.
With `O=C1N=C2c3ccccc3C(=O)C2C(c2ccccc2)N1` (stereo not given), the IC50 in assay [1] and in assay [2] was greater than 10 µM throughout.
For the compound `S=C1N=C2C(=Cc3ccccc3)CCCC2C(c2ccccc2)N1` (stereo not given), in assay [2], the IC50 is greater than 10 µM.
On to `CN(C)CCCOc1cccc(C2NC(=S)N=C3c4ccccc4C(=O)C32)c1` (stereo not given), for which the 50% inhibitory concentration (IC50) in assay [1] and in assay [2] was greater than 10 µM throughout.

As usually defined, the IC50 is the midpoint of a concentration-inhibition curve.
